# Data reported in paper PMC6887851, “A Chemical-Intervention Strategy To Circumvent Peptide Hydrolysis by D-Stereoselective Peptidases” (Journal of Medicinal Chemistry, 2019).
# Where a SMILES comes first, the peptide text is derived from it. [ ]: non-standard residue; d: D form. The star is where a group is joined. dDab = NCC[C@@H](N)C(=O)O; Octanoyl = CCCCCCCC(=O)*; Dab = NCC[C@H](N)C(=O)O
# Columns and labels:
# D-peptidase BogQ = test: Peptide hydrolysis assay with BogQ (UPLC–MS cleavage ratio); format: in vitro ADME; conditions: BogQ 20 nM, substrate 50 μM, 25% PBS buffer pH 7.4, 37 °C, end-point after 1 h incubation, cleavage ratio by UPLC–MS, two independent experiments
# Description: (§1) For expression of D-peptidases, the recombinant strain E. coli BL21 carrying pET-28a-bogQ or pET-24a-triFpep was cultured overnight at 37 °C in LB medium. This was diluted 1:100 into 100 mL of LB medium containing 50 μg/mL kanamycin and incubated at 37 °C until OD600 = 0.4–0.6 was reached. The culture was incubated at 15 °C for 30 min, and isopropyl β-D-1-thiogalactopyranoside was added to a final concentration of 200 μM.[17] The target proteins purified using Ni-NTA purification. The assay mixture (total volume 30 μL in 25% PBS buffer, pH 7.4), containing purified protein (BogQ, 20 nM or TriFpep 200 nM) and synthetic analogues (50 μM), was incubated for 1 h (BogQ) or 24 h (TriFpep) at 37 °C. Reactions were quenched with three volumes of cold methanol (90 μL) and centrifuged at 15 000 rpm for 10 min to precipitate protein. The supernatant (2 μL) was subjected to UPLC–MS analysis for the determination of cleavage ratios.[17] Assays were repeated in two independent experiments and results consistent across both.
# [1] = tested on: TriFpep (peptidase domain of D-peptidase TriF); test: Peptide hydrolysis assay with TriFpep (UPLC–MS cleavage ratio); format: in vitro ADME, Paenibacillus polymyxa CICC10580; conditions: Paenibacillus polymyxa; TriFpep 200 nM, substrate 50 μM, 25% PBS buffer pH 7.4, 37 °C, end-point after 24 h incubation, cleavage ratio by UPLC–MS, two independent experiments
# Description: Having determined that N- or α-methylation of position 9 in the tridecaptins substantially improves resistance to hydrolysis by BogQ, we next tested if modifying the 6 position could overcome TriF hydrolysis at D-Trp5. TriFpep, the soluble periplasmic peptidase domain of TriF, was used in these assays. […] Oct-TriA2(6-Sar) (20) and Oct-TriA2(6-Aib) (21) were synthesized and found to be completely resistant to TriF and retain strong activity (3.13 μg/mL) against E. coli. […] Discovering that a simple substitution of Ser6 with Sar or Aib provides complete TriF resistance with negligible loss in activity is a welcome development.
# as §1, with “Reactions were quenched with three volumes of cold methanol (90 μL) and centrifuged at 15 000 rpm for 10 min to precipitate protein. The supernatant (2 μL) was subjected to UPLC–MS analysis for the determination of cleavage ratios.[17] Assays were repeated in two independent experiments and results consistent across both.” left out
# S. aureus NCTC 10788 = format: cell-based, Staphylococcus aureus; conditions: NCTC 10788, 18 h
# Description: (§2) Minimum inhibitory concentrations (MICs) were determined according to Clinical and Standards Laboratory Institute (CLSI) guidelines. Briefly, peptides were dissolved in Muller–Hinton broth (MHB) and serial dilutions made across a 96-well plate. Each well was inoculated with a suspension of the required bacterial strain to reach a final inoculum of 5 × 10^5 colony forming units per mL. The MIC was taken as the lowest concentration with no visible (cloudy suspension) growth after 18 h. The antimicrobial activity of each peptide was determined in duplicate in three independent experiments and found to be consistent across all experiments.
# E. coli NCTC 12241 = format: cell-based, Escherichia coli; conditions: NCTC 12241, 18 h
# Description: as §2
SMILES,"metabolised at 1 h, 50 μM (D-peptidase BogQ) [%]",metabolised at 24 h [1] [%],MIC (μg/mL) Sa (S. aureus NCTC 10788) [µg/mL],MIC (μg/mL) Ec (E. coli NCTC 12241) [µg/mL]
"CCCCCCCC(=O)N[C@@H](C(=O)N[C@H](CCN)C(=O)NCC(=O)N[C@H](CO)C(=O)N[C@H](Cc1c[nH]c2ccccc12)C(=O)N(C)CC(=O)N[C@@H](CCN)C(=O)N[C@H](CCN)C(=O)NC(C)(Cc1ccccc1)C(=O)N[C@@H](CCC(=O)O)C(=O)N[C@H](C(=O)N[C@@H](C(=O)N[C@@H](C)C(=O)O)C(C)C)C(C)C)C(C)C (some centres unmarked) [compound 23, Oct-TriA2 (6-Sar, 9-αMePhe)]",39,0,>50,>50
"CCCCCCCC(=O)N[C@@H](C(=O)N[C@@H](CCN)C(=O)NCC(=O)N[C@H](CO)C(=O)N[C@H](Cc1c[nH]c2ccccc12)C(=O)N[C@@H](CO)C(=O)N[C@@H](CCN)C(=O)N[C@H](CCN)C(=O)N[C@@H](Cc1ccccc1)C(=O)N[C@@H](CCC(=O)O)C(=O)N[C@H](C(=O)N[C@@H](C(=O)N[C@@H](C)C(=O)O)C(C)C)C(C)C)C(C)C [compound 14, Oct-TriA2 (2-Dab)] (Octanoyl-[dV][Dab]G[dS][dW]S[Dab][dDab]FEV[dV]A-OH)",–,–,>50,–
"CCCCCCCC(=O)N[C@@H](C(=O)N[C@H](CCN)C(=O)NCC(=O)N[C@H](CO)C(=O)N[C@H](Cc1c[nH]c2ccccc12)C(=O)N[C@@H](CO)C(=O)N[C@@H](CCN)C(=O)N[C@H](CCN)C(=O)NC(C)(Cc1ccccc1)C(=O)N[C@@H](CCC(=O)O)C(=O)N[C@H](C(=O)N[C@@H](C(=O)N[C@@H](C)C(=O)O)C(C)C)C(C)C)C(C)C (some centres unmarked) [compound 16, Oct-TriA2 (9-αMePhe)]",39,–,>50,–
"CCCCCCCC(=O)N[C@@H](C(=O)N[C@H](CCN)C(=O)NCC(=O)N[C@H](CO)C(=O)N[C@H](Cc1c[nH]c2ccccc12)C(=O)N(C)CC(=O)N[C@@H](CCN)C(=O)N[C@H](CCN)C(=O)NC(C)(Cc1ccccc1)C(=O)N[C@@H](CCC(=O)O)C(=O)N[C@H](C(=O)N[C@@H](C(=O)N[C@@H](C)C(=O)O)[C@@H](C)CC)C(C)C)C(C)C (some centres unmarked) [compound 25, Oct-TriA2 (6-Sar, 9-αMePhe)]",40,0,>50,>50
